Measured values as given in ChEMBL document CHEMBL1144758, “Semisynthetic studies on the manzamine alkaloids” (J Nat Prod, 2008).
Converted amounts (≈) assume the structure as drawn. The source made the active and inactive calls. The calls are words filed in the database; no cut-off is given here.

Experiments:
[1] = system: Microglia; experiment: Antiinflammatory activity in Escherichia coli lipopolysaccharide-activated rat neonatal microglia assessed as inhibition of oxygen radical at 30 uM; format: functional
[2] = system: Mycobacterium tuberculosis; experiment: Antibacterial activity against Mycobacterium tuberculosis H37Rv by microplate alamar blue assay; format: functional; design: Activity: concentration or dose not given beside the values; conditions: for MIC: Mycobacterium tuberculosis, H37Rv
[3] = system: Microglia; experiment: Antiinflammatory activity in Escherichia coli lipopolysaccharide-activated rat neonatal microglia assessed as inhibition of eicosanoid thromboxane B2 at 30 uM; format: functional, cell-based
[4] = system: P388; experiment: Cytotoxicity against mouse P388 cells; format: functional, cell-based
[5] = Antiinflammatory activity in Escherichia coli lipopolysaccharide-activated rat neonatal microglia assessed as inhibition of eicosanoid thromboxane B2; format: functional, cell-based
[6] = system: Microglia; experiment: Antiinflammatory activity in Escherichia coli lipopolysaccharide-activated rat neonatal microglia assessed as inhibition of oxygen radical; format: functional, cell-based
[7] = system: Mycobacterium tuberculosis; experiment: Antibacterial activity against Mycobacterium tuberculosis H37Rv at 0.5 ug/mL by microplate alamar blue assay; format: functional

## CC(=O)Oc1cccc2c1[nH]c1c([C@@H]3C=C4CC/C=C\CCCCN5CC[C@H]3[C@]3(C5)C(C(C)=O)=C5/C=C\CCCCN5[C@H]43)nccc12
[1]
  Activity: inactive
[2]
  Activity: 95%
  MIC: < 12.5 µg/mL
[3]
  Activity: inactive

## CC(=O)C1=C2/C(C(C)=O)=C\CCCCN2[C@H]2C3=C[C@H](c4nccc5c4[nH]c4ccccc45)[C@@H]4CCN(CCCC/C=C\CC3)C[C@]124
[1]
  Activity: inactive
[2]
  Activity: 95%
  MIC: < 12.5 µg/mL
[3]
  Activity: inactive

## CC(=O)Oc1cccc2c1[nH]c1c(C3=C[C@]4(OC(C)=O)CC/C=C\CCCCN5CC[C@H]3[C@@]3(C[C@H]6/C=C\CCCCN6[C@@H]34)C5)nccc12
[1]
  Activity: inactive
[2]
  Activity: 95%
  MIC: < 12.5 µg/mL
[3]
  Activity: inactive

## CC(=O)O/C(C)=C1\C[C@@H](OC(C)=O)CCCN2C1=C(C(C)=O)[C@@]13CN4CCCC/C=C\CCC(=C[C@@H](c5nccc6c5[nH]c5c(OC(C)=O)cccc56)[C@H]1CC4)[C@@H]23
[1]
  Activity: inactive
[2]
  Activity: 95%
  MIC: < 12.5 µg/mL
[3]
  Activity: inactive

## CC(=O)Oc1cccc2c1[nH]c1c([C@@H]3C=C4CC/C=C\CCCCN5CC[C@H]3[C@]3(C5)C(C(C)=O)=C5/C(C(C)=O)=C\CCCCN5[C@H]43)nccc12
[1]
  Activity: inactive
[2]
  Activity: 95%
  MIC: < 12.5 µg/mL
[3]
  Activity: inactive

## Oc1cccc2c1[nH]c1c(C3=C[C@]4(O)CCCCCCCCN5CC[C@H]3[C@@]3(C[C@H]6CCCCCCN6[C@@H]34)C5)nccc12
[1]
  Activity: inactive
[2]
  Activity: 95%
  MIC: < 12.5 µg/mL
[3]
  Activity: inactive

## Oc1cccc2c1[nH]c1c(C3=C[C@@]4(O)CC/C=C\CCCCN5CC[C@@H]3[C@]3(CC6/C=C\CCCCN6[C@H]34)C5)nccc12 (some centres undefined)
[1]
  Activity: inactive
[4]
  IC50: > 20 µg/mL
[2]
  Activity: 100%
  MIC: < 6.25 µg/mL
[3]
  Activity: inactive

## CC(=O)C1=C2/C=C\CCCCN2[C@H]2C3=C[C@H](c4nccc5c4[nH]c4ccccc45)[C@@H]4CCN(CCCC/C=C\CC3)C[C@]124
[1]
  Activity: inactive
[3]
  Activity: inactive

## Oc1cccc2c1[nH]c1c([C@H]3C[C@@]4(O)CCCCCCCCN5CC[C@@H]3[C@]3(C[C@@H]6CCCCCCN6[C@@H]43)C5)nccc12 [10,11,15,16,32,33-HEXAHYDRO-8-HYDROXYMANZAMINE A]
[5]
  IC50: 1.97 µM
[6]
  Activity: inactive
[2]
  Activity: 95%
  MIC: < 12.5 µg/mL

## Oc1cccc2c1[nH]c1c(C3=C[C@@]4(O)CCCCCCCCN5CC[C@@H]3[C@]3(C[C@@H]6CCCCCCN6[C@H]34)C5)nccc12 [15,16,32,33-TETRAHYDRO-8-HYDROXYMANZAMINE A]
[1]
  Activity: inactive
[2]
  Activity: 95%
  MIC: < 12.5 µg/mL
[3]
  Activity: inactive

## Oc1cccc2c1[nH]c1c(C3=C[C@]4(O)CC/C=C\CCCCN5CC[C@H]3[C@@]3(C[C@H]6CC[C@@H](O)CCCN6[C@@H]34)C5)nccc12 [31ALPHA-HYDROXY-32,33-DIHYDRO-8-HYDROXYMANZAMINE A]
[1]
  Activity: inactive
[2]
  Activity: 61%
[3]
  Activity: inactive

## Oc1cccc2c1[nH]c1c(C3=C[C@]4(O)CC/C=C\CCCCN5CC[C@H]3[C@@]3(C[C@H]6CC[C@H](O)CCCN6[C@@H]34)C5)nccc12 [31BETA-HYDROXY-32,33-DIHYDRO-8-HYDROXYMANZAMINE A]
[1]
  Activity: inactive
[2]
  Activity: 100%
  MIC: < 6.25 µg/mL
[3]
  Activity: inactive

## O[C@]12C=C(c3nccc4c3[nH]c3ccccc34)[C@@H]3CCN(CCCC/C=C\CC1)C[C@@]31C[C@@H]3CCCCCCN3[C@H]12 [32,33-DIHYDROMANZAMINE A]
[1]
  Activity: inactive
[2]
  Activity: 95%
  MIC: < 12.5 µg/mL
[3]
  Activity: inactive

## Oc1cccc2c1[nH]c1c(C3=C[C@]4(O)CC/C=C\CCCCN5CC[C@H]3[C@@]3(C[C@H]6/C=C\CCCCN6[C@@H]34)C5)nccc12 [ENT-8-HYDROXYMENZAMINE A]
[5]
  IC50: 0.25 µM
[6]
  Activity: inactive
[4]
  IC50: 0.25 µg/mL (≈ 0.443 µM)
[2]
  Activity: 95%
  MIC: < 12.5 µg/mL

## O[C@]12C=C(c3nccc4c3[nH]c3ccccc34)[C@@H]3CCN(CCCC/C=C\CC1)C[C@@]31C[C@@H]3/C=C\CCCCN3[C@H]12 [MANZAMINE A]
[5]
  IC50: < 0.1 µM
[6]
  Activity: inactive
[2]
  Activity: 95%
  MIC: < 12.5 µg/mL

## O=C1CCCN2[C@@H](CC1)C[C@]13CN4CCCC/C=C\CC[C@](O)(C=C(c5nccc6c5[nH]c5c(O)cccc56)C1CC4)[C@H]23 (some centres undefined) [MANZAMINE F]
[1]
  Activity: inactive
[2]
  Activity: 95%
  MIC: < 12.5 µg/mL
[3]
  Activity: inactive

## O[C@@H]1CCCN2CC[C@@H]1O[C@@]13CC[C@@H](OC[C@]45CN6CCCC/C=C\CC[C@](O)(C=C(c7nccc8c7[nH]c7ccccc78)[C@@H]4CC6)[C@H]25)[C@@H](O)CCN1[C@@H]1[C@]2(CN4CCCC/C=C\CC[C@]1(O)C=C(c1nccc5c1[nH]c1ccccc15)[C@@H]2CC4)C3 [NEO-KAULUAMINE]
[2]
  Activity: 44%

## CO[C@H]1/C=C/O[C@@]2(C)Oc3c(C)c(O)c4c(O)c(c(/C=N/N5CCN(C)CC5)c(O)c4c3C2=O)NC(=O)/C(C)=C\C=C\[C@H](C)[C@H](O)[C@@H](C)[C@@H](O)[C@@H](C)[C@H](OC(C)=O)[C@@H]1C [RIFAMPIN]
[7]
  Activity: 100%

## O[C@]12C=C(c3nccc4c3[nH]c3ccccc34)[C@@H]3CCN(CCCCCCCC1)C[C@@]31C[C@@H]3CCCCCCN3[C@H]12 [TETRAHYDROMANZAMINE A]
[1]
  Activity: inactive
[2]
  Activity: 95%
  MIC: < 12.5 µg/mL
[3]
  Activity: inactive
